From patent EP1064941A1, “Use of melatoninergic ligands for obtaining pharmaceutical compositions for the prevention or the treatment of gastrointestinal pathologies” (ADIR ET COMPAGNIE, priority 1999, dated 2001)

Columns and labels:
Type in all cases: in vivo
[1] = tested on: complexes myoélectriques intestinaux; test: Effects of melatoninergic ligands on intestinal myoelectric complexes in the rat (electrodes implanted on the intestinal wall); conditions: male Wistar rats
Method: Des rats mâles Wistar adultes placés en cycle lumière/obscurité 12h/12h sont implantés sous anesthésie d'électrodes sur la paroi de l'intestin afin d'enregistrer l'activité myoélectrique. Les rats ont un accès limité (30 min) à la nourriture pendant la période diurne.
Les composés de l'invention agonistes mélatoninergiques ou la mélatonine sont administrés par voie intraveineuse à la dose de 1 mg/kg, 10 min avant le repas. […] Ces complexes myoélectriques apparaissent tout d'abord sur le duodénum avec un délai de 50 min puis ils se propagent sur le jéjunum et l'iléon.

[2] = tested on: durée de la réponse postprandiale; test: Effects of melatoninergic ligands on the duration of the postprandial response (irregular intestinal motor activity) in the rat; conditions: male Wistar rats, 30 min before access to food
Method: Chez le rat, la durée de la réponse postprandiale évaluée par l'activité motrice irrégulière intestinale, est plus courte en période d'obscurité que pendant la période diurne et ceci pour une même quantité d'aliments ingérés. Afin de confirmer que cette diminution de la durée pouvait être due à la sécrétion nocturne de mélatonine, le protocole suivant a été réalisé : des rats mâles Wistar adultes habitués à un cycle lumière/obscurité 12h/12h sont implantés sous anesthésie d'électrodes sur la paroi de l'intestin afin d'enregistrer l'activité myoélectrique. Les rats ont un accès limité (30 min) à la nourriture soit pendant la période nocturne soit pendant la période diurne. Les molécules de l'invention sont administrées 30 min avant l'accès à la nourriture. Le paramètre évalués dans ces études est la durée de l'activité irrégulière motrice. Les périodes de complexes myoélectriques ne sont pas prises en compte dans le cas d'induction par la molécule testée.

[3] = tested on: inflammation intestinale induite par l'indométhacine; test: Indomethacin-induced intestinal inflammation model in the rat; conditions: male Wistar rats, 50 mg/kg ip ten minutes before each of two indomethacin doses (7,5 mg/kg sc, 24 h apart)
From the text: L'inflammation intestinale induite par administration d'indométhacine chez le rat est considérée comme un modèle animal physiopathologique présentant des modifications du comportement et de la motricité intestinale similaires à celles observées chez les patients atteints de la maladie de Crohn (Yamada T. et al, 1993, Mechanisms of acute and chronic intestinal inflammation induces by indomethacin, Inflammation, 17-6, 641-62; Gurbuz V. et al, 1999, Role of nitric oxide in indomethacin-induced gastric mucosal dysfunction in the rat, Experimental Physiology, 84, 319-332; Chen K. et al, 1999, Expression of NO II and its role in the experimental small bowel ulceration in rats, Surgery, 126, 553-561).
Des rats mâles Wistar adultes placés en cycle lumière/obscurité 12h/12h sont implantés sous anesthésie d'électrodes sur la paroi de l'intestin afin d'enregistrer l'activité myoélectrique. Les animaux sont divisés en plusieurs groupes.
Le groupe de rats témoins reçoit deux administrations d'indométhacine (7,5 mg/kg sc) espacées de 24 h. Les autres groupes de rats sont prétraités par la mélatonine ou un ligand mélatoninergique (50 mg/kg ip) dix minutes avant les deux administrations d'indométhacine.
Les animaux sont suivis sur le plan comportemental (prise alimentaire), physiologique (aspect du pelage, diarrhées) et motricité intestinale.

SMILES | blocage de l'induction des complexes myoélectriques par l'agoniste ([1]; antagonist pretreatment 2 mg/kg subcutaneous, 30 min before the agonist) | durée de la réponse postprandiale nocturne ([2]; given 5 h after onset of darkness) | apparition de complexes myoélectriques pendant la réponse motrice postprandiale ([1]; 1 mg/kg intravenous, 10 min before the meal, daytime feeding (30 min access)) | délai d'apparition des complexes myoélectriques sur le duodénum ([1]; 1 mg/kg intravenous, 10 min before the meal, complexes then propagate to jejunum and ileum) [min] | durée de la réponse postprandiale diurne ([2]; 100 µg/kg intravenous, given 4 h after onset of light) | symptômes de l'inflammation intestinale (diarrhées, perte de poils, prise alimentaire, motricité intestinale) [3]
CCc1ccc2scc(CCNC(C)=O)c2c1 [N-[2-(5-éthyl-1-benzothiophèn-3-yl)éthyl]acétamide] | empêche toute formation de complexe myoélectrique | entraîne un allongement de la réponse postprandiale qui devient d'une durée équivalente à la réponse observée le jour |  |  |  | 
COc1ccc2[nH]cc(CCNC(C)=O)c2c1 [mélatonine] |  |  | induisent l'apparition de complexes myoélectriques pendant la réponse motrice postprandiale | 50 | réduit la durée de la réponse postprandiale et la ramène à une durée de type nocturne | ne présentent plus de diarrhées, de perte de poils, de diminution de la prise alimentaire et de la motricité intestinale
